Reference: patent publication US10865213B2, “Max binders as MYC modulators and uses thereof” (Massachusetts Institute of Technology, priority 2016, dated 2020)
pIC50: −log10 of the molar value. Converted amounts (≈) assume the structure as drawn. Where two headings read alike, the source gives them in different places. Blank lines part the entries; values can stand above or below the compound they belong to.

Experiments:
[1] = test system: c-Myc; assay: c-Myc reporter gene assay (Qiagen), Firefly/Renilla ratio, HEK293T cells; assay type: cell-based
Procedure: The activity of Compound 1 against Myc was measured as a Firefly/Renilla ratio, using the Myc reporter assay (Qiagen) in HEK293T cells after treatment with Compound 1 for 16 hours. Results are expressed as a mean+/−SD (n=3). SD: standard deviation.
Select compounds described herein that were SMM assay positives were evaluated in several versions of a c-Myc reporter gene assay, including a commercial assay from Qiagen. The compounds' activities against c-Myc were measured as a Firefly/Renilla ratio, using the Myc reporter assay (Qiagen) in HEK293T cells after treatment with the compounds for 16 hours.

[2] = test system: P493-6 Myc OFF cells; assay: Cell viability, CELL TITER GLO, P493-6 Myc OFF; assay type: cell-based, human
Text: (§1) FIGS. 3A to 3B show exemplary results of an assay of cell viability and the selectivity of Compound 1 for cells expressing Myc and non-Myc expressing cells. Compound 1 affected cell viability after treatment with Compound 1 for 3 days, as measured using CELL TITER GLO (Promega) in a cancer cell line (P493-6, derived from human B-cells), where Myc is ON (FIG. 3A) or Myc is OFF (FIG. 3B). Results were expressed as a mean+/−SEM (n=3). RLU: Relative Luminescence Units.
(§2) The selectivity of Compound 1 for cells expressing Myc over non-Myc expressing cells in cancer cell line P493-6 (engineered cell line derived from human B-cells) was determined. Adding doxycycline to P493-6 growth media shuts off Myc transcription. Exemplary results are shown in FIGS. 3A to 3B, where cell viability was assessed by CELL TITER GLO assay (Promega). FIG. 3A depicts the assay results for cells expressing Myc, and FIG. 3B depicts the assay results for non-Myc expressing cells. […] The selectivity of other compounds described herein in cancer cell line cancer cell line P493-6 was also determined, and exemplary results are shown in Table 2, where viability was assessed by CELL TITER GLO assay (Promega).

[3] = test system: P493-6 Myc ON cells; assay: Cell viability, CELL TITER GLO, P493-6 Myc ON; assay type: cell-based, human
Text: as §1, §2

[4] = test system: ST486, CA46, NCI-H1963, GBM4 cancer cell lines; assay: Cell viability, CELL TITER GLO, cancer cell lines ST486, CA46, NCI-H1963, GBM4; assay type: cell-based; details: 3 days treatment (4 days GBM4)
Procedure: Compound 1 affected cell viability after treatment with Compound 1 for 3 days (and 4 days for GBM4 and NHA), as measured using CELL TITER GLO (Promega) in 4 different cancer cell lines: ST486 (Burkitt's lymphoma; FIG. 2), CA46 (Burkitt's lymphoma; FIG. 2), NCI-H1963 (small cell lung cancer; FIG. 2), and GBM4 (glioblastoma; FIG. 2). The cell viability of normal human astrocytes (NHA) was also assayed. Results were expressed as a mean+/−SEM (n=2). The effect of Compound 1 on cell viability in several cancer cell lines and normal human astrocytes (NHA) was determined. The cancer cell lines employed in the assay included those corresponding to Burkitt's lymphoma (ST486 and CA46), small cell lung cancer (NCI-H1963), and glioblastoma (GBM4). The cell viability of normal human astrocytes (NHA) was also assayed. Exemplary results are shown in FIG. 2, where viability was assessed by CELL TITER GLO assay (Promega). […] The effects of other compounds described herein on cell viability in several cancer cell lines were also determined, and exemplary results are shown in Table 2, where viability was assessed by CELL TITER GLO assay (Promega).

[5] = Intrinsic clearance, liver microsomes; assay type: in vitro ADME; details: Intrinsic clearance (liver microsomes, human)
[6] = Aqueous solubility at 25° C.; assay type: physicochemical
[7] = test system: ST-486; assay: Viability assay in ST-486; assay type: cell-based; details: Homo sapiens, ST486; ST-486, non-engineered cell line
[8] = molecular target: T1, Max homodimer (Homo sapiens, UniProt P61244); assay: EMSA with recombinant Max, homodimer binding to DNA
T1 sequence (P61244 whole entry): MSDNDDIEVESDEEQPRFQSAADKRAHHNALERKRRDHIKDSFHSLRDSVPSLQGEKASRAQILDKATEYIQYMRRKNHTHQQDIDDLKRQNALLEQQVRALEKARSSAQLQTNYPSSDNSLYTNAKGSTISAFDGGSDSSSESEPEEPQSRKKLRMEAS
Text: (§3) This leads to a hypothesize that KI-MS2-008 stabilizes the Max homodimer.

[9] = test system: MYC-driven T-ALL model; assay: MYC-driven T-ALL / lymphoma model, Luc-labeled cells transplanted into NSG mice; assay type: in vivo
[10] = test system: Myc transcript; assay: qPCR of Myc transcript levels; assay type: cell-based
[11] = test system: P3HR1; assay: Viability assay in P3HR1; assay type: cell-based; details: Homo sapiens, P3HR-1; P3HR1, non-engineered cell line
[12] = test system: Myc; assay: Myc protein levels; assay type: cell-based; details: recovered by proteasome inhibition
[13] = molecular target: T1, Max homodimer; assay: fPLC quantification of Max monomer vs. Max homodimer; assay type: binding; details: monomer vs. homodimer populations
Text: as §3

[14] = molecular target: c-Myc/Max heterodimer (Homo sapiens, UniProt P61244); assay: Electrophoretic mobility shift assay, c-Myc/Max heterodimer; assay type: binding
c-Myc/Max heterodimer, sequence (P61244 whole entry, one chain of several): as the sequence (P61244 whole entry) above
Text: as §3

[15] = Table 3, read-out: IC50 Reporter assay
[16] = Table 3, read-out: IC50 Myc OFF
[17] = Homo sapiens, HEK-293T, HEK293T cells, 16 hours, Table 2, read-out: c-Myc reporter assay IC50
[18] = Homo sapiens, HEK-293T, read-out: IC50 value in Myc reporter assay

Structure (SMILES): O=C1NCc2ccccc2[C@@H]2OC(c3ccccc3)=N[C@]12Cc1ccccc1 [Compound 2a]
pIC50 [1, 15]: 4.78
pIC50 [2, 16]: < 4.30
pIC50 ([3]; Table 3, read-out: IC50 Myc ON): < 4.30

Structure (SMILES): O=C(O)CN1Cc2ccccc2[C@@H]2OC(c3ccccc3)=N[C@]2(Cc2ccccc2)C1=O [Compound 8a]
pIC50 [1, 15]: < 4.30
pIC50 [2, 16]: < 4.30
pIC50 ([3]; Table 3, read-out: IC50 Myc ON): < 4.30

Structure (SMILES): O=C1N(CCS(=O)(=O)c2ccccc2)Cc2ccccc2[C@@H]2OC(c3ccc(OCCCO)cc3)=N[C@]12Cc1ccccc1 [Compound 1]
Effect on cell viability [4]: demonstrated an effect in cell viability
half-life [5]: 21 min
pIC50 [1, 17]: 5.70
pIC50 [1, 18]: 5.56
pIC50 ([2]; Homo sapiens, P493-6, CELL TITER GLO, Table 2, read-out: P493-6 Myc OFF Viability in cells): 4.24
pIC50 ([3]; Homo sapiens, P493-6, CELL TITER GLO, Table 2, read-out: P493-6 Myc ON Viability in cells): 5.17
Selectivity for cells expressing Myc over non-Myc expressing cells ([3]; P493-6, Myc ON vs. Myc OFF (doxycycline)): demonstrated a selectivity for cells expressing Myc
solubility ([6]; Aqueous solubility (simulated gastric fluid)): 51.2 µM (≈ 31.3 µg/mL)
solubility ([6]; aqueous buffer, Aqueous solubility (PBS, pH 7.4)): 9.2 µM (≈ 5.62 µg/mL)
solubility ([6]; fassgf or other biorelevant, Aqueous solubility (simulated intestinal fluid)): 200 µM (≈ 122 µg/mL)

Structure (SMILES): COC(=O)[C@@]1(Cc2ccccc2)N=C(c2ccccc2)O[C@H]1c1ccccc1CN=[N+]=[N-] [Compound 6, Methyl (4S,5S)-5-(2-(azidomethyl)phenyl)-4-benzyl-2-phenyl-4,5-dihydrooxazole-4-carboxylate]
pIC50 [1, 17]: 5.33

Structure (SMILES): C#CCN(CC(=O)NCCNC(=O)CN1Cc2ccccc2[C@@H]2OC(c3ccccc3)=N[C@]2(Cc2ccccc2)C1=O)C(=O)CCC1(C)N=N1 [Compound 12a]
pIC50 [1, 15]: 4.73

Structure (SMILES): O=C1N(CCS(=O)(=O)c2ccccc2)Cc2ccccc2[C@@H]2OC(c3ccccc3)=N[C@]12Cc1ccccc1 [KI-MS2-008]
pIC50 [7]: 4.73
Max homodimer binding to DNA (EMSA) [8]: dose-dependent increase of Max homodimer binding to DNA
Tumor volume [9]: impacts tumor volume
Myc transcript levels [10]: decreases Myc transcript levels
pIC50 [11]: 4.29
Myc protein levels [12]: decreases Myc protein levels
Induced dimerization of the Max homodimer [13]: 9.9%
Disruption of c-Myc/Max heterodimer (EMSA) [14]: does not disrupt the c-Myc/Max heterodimer

Structure (SMILES): O=C(CCCCC1SCC2NC(=O)NC21)NCCOCCOCCNC(=O)OCCCOc1ccc(C2=N[C@]3(Cc4ccccc4)C(=O)N(CCS(=O)(=O)c4ccccc4)Cc4ccccc4[C@@H]3O2)cc1 (stereo partly drawn) [Compound 5]
pIC50 [1, 17]: 5.27
pIC50 [1, 18]: 5.27

Structure (SMILES): O=C1NCc2ccccc2[C@@H]2OC(c3ccccc3)=N[C@H]12 [Compound 1a]
pIC50 [1, 15]: < 4.30

More lines, main results first:

pIC50 [1, 15]: 5.12
Structure (SMILES): C=CCN1Cc2ccccc2[C@@H]2OC(c3ccccc3)=N[C@]2(Cc2ccccc2)C1=O [Compound 4a]
pIC50 [2, 16]: < 4.30
pIC50 ([3]; Table 3, read-out: IC50 Myc ON): 4.50

pIC50 [1, 15]: 4.99
Structure (SMILES): C#CCNC(=O)CN1Cc2ccccc2[C@@H]2OC(c3ccccc3)=N[C@]2(Cc2ccccc2)C1=O [Compound 11a]

pIC50 ([1]; HEK293T cells, 16 hours, Table 2, read-out: c-Myc reporter assay IC50): 5.37
pIC50 ([1]; Table 3, listed as 15^b, read-out: IC50 Reporter assay): 5.32
pIC50 ([1]; Table 3, listed as 15^c, read-out: IC50 Reporter assay): 5.32
pIC50 [1, 15]: 4.93
Structure (SMILES): O=C1N(CCS(=O)(=O)c2ccccc2)Cc2ccccc2[C@@H]2OC(c3ccc(OCCCO)cc3)=N[C@]12Cc1ccccc1 (single isomer, unassigned) [15^a]
pIC50 [2, 16]: < 4.30
pIC50 ([3]; Table 3, listed as 15^b, read-out: IC50 Myc ON): 5.07
pIC50 ([3]; Table 3, listed as 15^c, read-out: IC50 Myc ON): 4.78
pIC50 ([3]; Table 3, read-out: IC50 Myc ON): 4.84

pIC50 [1, 15]: 5.47
Structure (SMILES): CCOC(=O)CN1Cc2ccccc2[C@@H]2OC(c3ccccc3)=N[C@]2(Cc2ccccc2)C1=O [Compound 7a]
pIC50 [2, 16]: < 4.30
pIC50 ([3]; Table 3, read-out: IC50 Myc ON): 4.41

pIC50 [1, 15]: 5.67
Structure (SMILES): O=C1N(CCO)Cc2ccccc2[C@@H]2OC(c3ccccc3)=N[C@]12Cc1ccccc1 [Compound 10a]

pIC50 [1, 15]: 5.21
Structure (SMILES): O=C1N(CCS(=O)(=O)c2ccccc2)Cc2ccccc2[C@@H]2OC(c3ccccc3)=N[C@]12Cc1ccccc1 [Compound 3a]
pIC50 [2, 16]: < 4.30
pIC50 ([3]; Table 3, read-out: IC50 Myc ON): 4.94
